Source: patent publication US20190365685A1, “EYE DROPS FOR TREATING DRY EYE” (LTT BIO-PHARMA CO., LTD., priority 2013, published 2019)

Legend:
[1] = system: HCE cells; assay: MTT assay in hyperosmotic media with diclofenac, NaCl and/or PGE2 (Example 3); format: cell-based, Human; settings: 150 mM NaCl, 24 hours
Protocol: HCE cells were incubated in hyperosmotic media containing diclofenac, 150 mM NaCl, and/or PGE2 for 24 hours. The number of viable cells was measured by MTT assay, and the absorbance data were expressed as relative values to that of the control (under isotonic conditions).
The same procedure as in Example 3 was followed, except that bromfenac was used in place of diclofenac.

[2] = system: Human corneal epithelial cells (HCE cells); assay: MTT assay of viable cells under hyperosmotic conditions (Example 1); format: cell-based; settings: 150 mM NaCl, 280 mM glucose or 280 mM sorbitol, compared with other NSAIDs
Protocol: Human corneal epithelial cells (HCE cells) were incubated in hyperosmotic media containing diclofenac. The hyperosmotic conditions of each medium were created by 150 mM NaCl, 280 mM glucose, or 280 mM sorbitol. The number of viable cells was measured by MTT assay, and the absorbance was calculated relative to the control (under isotonic conditions). The values are represented as average±S.D. (n=3), with a single asterisk (*) indicating P<0.05 and a double asterisk (**) indicating P<0.01.
The same procedure as in Example 1 was followed, except that other nonsteroidal anti-inflammatory drugs (NSAIDs) were used in place of diclofenac.

[3] = system: HCE cells; assay: Caspase-3-like activity under hyperosmotic conditions (Example 2); format: cell-based, Human; settings: 150 mM NaCl, six hours of incubation
Protocol: (§1) HCE cells were incubated in hyperosmotic media containing diclofenac and 150 mM NaCl. After six hours of incubation, the caspase-3-like activity was measured using a fluorescent peptide substrate. Furthermore, after 12 hours of incubation, cell proliferation was assessed by BrdU incorporation assay, and the absorbance data were expressed as relative values to that of the control (under isotonic conditions). The values are represented as average±S.D. (n=3), with a single asterisk (*) indicating P<0.05 and a double asterisk (**) indicating P<0.01. The same procedure as in Example 2 was followed, except that bromfenac was used in place of diclofenac.

[4] = system: HCE cells; assay: Cell proliferation by BrdU incorporation assay under hyperosmotic conditions (Example 2); format: cell-based, Human; settings: 150 mM NaCl, 12 hours of incubation
Protocol: as §1

[5] = system: PGE2; assay: Amount of PGE2 induced by arachidonic acid, measured by EIA (Example 3); format: cell-based, Human; settings: HCE cells, 30 minutes pre-incubation, 10 μM arachidonic acid
Protocol: Separately, HCE cells were pre-incubated in media containing diclofenac for 30 minutes, and then incubated in media containing 10 μM arachidonic acid and diclofenac. The arachidonic acid was added to induce PGE2. The amount of PGE2 contained in each culture was measured by EIA. The values are represented as average±S.D. (n=3), with a single asterisk (*) indicating P<0.05 and a double asterisk (**) indicating P<0.01. The same procedure as in Example 3 was followed, except that bromfenac was used in place of diclofenac.

[6] = system: NFAT5; assay: NFAT5 expression and nuclear translocation by immunoblotting (Example 4); format: cell-based, Human; settings: HCE cells, 150 mM NaCl, six hours or one hour
Protocol: HCE cells were incubated in hyperosmotic media containing diclofenac and 150 mM NaCl for six hours (FIG. 4A and FIG. 4C) or for one hour (FIG. 4B). Each whole cell homogenate (FIG. 4A and FIG. 4B) or nuclear extract (FIG. 4B) was analyzed by immunoblotting using an anti-NFAT5, anti-actin, or anti-lamin B antibody. The intensity of the NFAT5 band was measured and expressed as relative values to that of the control (under isotonic conditions without diclofenac) (FIG. 4A and FIG. 4B). The relative bgt1 mRNA expression level was measured by real-time RT-PCR, and the values normalized by the actin expression level are expressed as relative values to that of the control (under isotonic conditions without diclofenac) (FIG. 4C). The values are represented as average±S.D. (n=3), with a single asterisk (*) indicating P<0.05 and a double asterisk (**) indicating P<0.01. The same procedure as in Example 4 was followed, except that bromfenac was used in place of diclofenac.

[7] = system: corneal surface disorders in the dry eye model; assay: Rat dry eye model by lacrimal gland removal (Example 5); format: in vivo; settings: lacrimal gland removed, ophthalmic solution 5 μl, 0.1% (3.1 mM), three times a day, fluorescein score, TUNEL
Protocol: The lacrimal gland of a rat was removed to prepare a dry eye model. One to five weeks after the lacrimal gland removal, an ophthalmic solution (5 μl) containing diclofenac (0.1%, 3.1 mM) was administered three times a day. The amount of tears was measured by the cotton thread test. Five weeks after the lacrimal gland removal, ocular tissue sections were prepared and subjected to TUNEL assay and DAPI staining. The values are represented as average±S.E.M., with a single asterisk (*) indicating P<0.01 and n.s. meaning “not significant”. The same procedure as in Example 5 was followed, except that bromfenac was used in place of diclofenac.

[8] = system: corneal surface disorders in the dry eye model; assay: Rat dry eye model, fluorescein score after four weeks of administration (Example 10); format: in vivo; settings: lacrimal gland removed, ophthalmic solution 5 μl, 0.05% (1.55 mM), three times a day
Protocol: The lacrimal gland of a rat was removed to prepare a dry eye model. One week after the lacrimal gland removal, an ophthalmic solution (5 μl) containing diclofenac (0.05%, 1.55 mM; or 0.1%, 3.1 mM) was administered three times a day. After four weeks from the start of the administration, the tears were subjected to fluorescein staining, and the fluorescein score was calculated. The same procedure as in Example 10 was followed, except that a buffer was used (Vehicle) in place of diclofenac.

Question: How did the “number of viable cells with PGE2 (MTT)” value ([1]; hyperosmotic media) turn out when `CCCCC[C@H](O)/C=C/[C@H]1[C@H](O)CC(=O)[C@@H]1C/C=C\CCCC(=O)O` [PGE2, prostaglandin E2] was run?
Answer: Its value is “did not change”.

Question: With `O=C(O)Cc1ccccc1Nc1c(Cl)cccc1Cl` [diclofenac] as the compound, how does the “reducing cytotoxicity under hyperosmotic conditions (number of viable cells, MTT)” value [2] read?
Answer: The value was “highly effective in reducing cytotoxicity under hyperosmotic conditions”.

Question: And the “inhibiting apoptosis under hyperosmotic conditions (caspase-3-like activity)” value [3]?
Answer: Its value is “effective in inhibiting apoptosis under hyperosmotic conditions”.

Question: What about the “cell proliferative effect (BrdU incorporation)” value [4] of the same compound?
Answer: Its value is “exhibited a cell proliferative effect”.

Question: What about the “concentration required to reduce cytotoxicity caused by hyperosmolarity” value ([1]; MTT) of the same compound?
Answer: Its value is 100 nM.

Question: And the “concentration required to reduce PGE2” value [5]?
Answer: The value was 0.1 nM.

Question: What about the “expression and nuclear translocation of NFAT5” value [6] of the same compound?
Answer: Its value is “enhancing the expression and nuclear translocation of NFAT5”.

Question: And the “effect of treating corneal surface disorders in the dry eye model” value [7]?
Answer: The value was “exhibited the effect of treating corneal surface disorders”.

Question: What about the “corneal surface disorders in the dry eye model (fluorescein score)” value [8] of the same compound?
Answer: Its value is “treatable”.
